Patent publication US20180028712A1, “SKIN-REGENERATING MATERIAL COMPRISING SYNERGISTIC COMBINATION OF METAL OXIDES” (ARGAMAN TECHNOLOGIES LTD., priority 2015, published 2018)

Experiments:
HFF cell line = experiment: Proliferation assay (Stage II), Alamar Blue viability of HFF cells
Description: (§1) For the treatments, the saturated solutions were diluted 1:10, 1:100, and 1:500 in the growth medium in a supernatant.
HFF cells were thawed and passaged at least once prior to assay performance. Exponentially growing culture was collected, centrifuged, counted and seeded in 96-well tissue culture plate at a density of 5000 cells/well.
The plate was incubated overnight at 37° C., humidified 5% CO2/air., to enable cells adherence to the wells.
The next day, the growth medium was replaced with the test item solutions in 5% and 1% FBS and vehicle control solution to achieve the final concentrations as designated in the following plate plan (final volume of 200 μl)
Plates were incubated for 24 hours at 37° C., humidified 5% CO2/air.
Following 24 hours, the medium was replaced with fresh growth medium containing 10% of Alamar Blue.

[1] = system: Human Foreskin Fibroblasts (HFF); conditions: 24 hours following the plate scratching
Description: as §1
HFF cells were thawed and passaged at least once prior to assay performance.

SMILES: [Ag+].[Ag+].[Ag+].[Ag+].[O-2].[O-2].[O-2].[O-2] [TST, tetrasilver tetroxide]
- cell proliferation / cytotoxicity result in words (HFF cell line; HFF cells, 24 hours, summary of Table 1): cytotoxic
- Number of cells (normalized) (HFF cell line; percent viability on HFF cell line, 24 hours incubation and 4 hours with Alamar Blue, control = 100): 85
- observation of scratched monolayer (proliferation along the scratch) ([1]; diluted 1:100, compared to control group): many proliferation centers along the scratch
- observation of scratched monolayer (cytotoxicity) ([1]; saturated solution diluted 1:10): cytotoxic
